Assay results taken from patent US20100074939A1 (OsteoGeneX Inc., priority 2008, published 2010).
Where a name gives a salt, the structure may show the parent alone.

Key:
[1] = test system: mouse; experiment: Bone formation in treated vs control mice by micro-CT (Example 1); assay type: in vivo; settings: test vs control solution, after complete dosing schedule
Excerpt: Compounds useful in the methods of the present invention can be identified via a variety of methods known to one of skill in the art. Several exemplary methods for identifying such antagonists are described herein, including cell-based and in vitro techniques (Journal of Bone and Mineral Research 2006, 21(11), 1738-1749). A general method of identifying SOST antagonists involves evaluating the effects of antagonist candidates on bone formation under controlled conditions. Preferably bone formation is determined using micro-CT techniques on live animals. Preferred animals include rodents, more preferred are primates. Femur, tibia and vertebrae bones are particularly useful subjects for such study.
Briefly, the test animal is treated with a predetermined dose of a SOST antagonist candidate. […]
Once the dosing schedule has been completed, both test and control animals are examined to determine the quantity of bone formation present. […] Where necessary, levels of bone formation can be calculated by determining the volume of bone formation present in each animal. […]
For example, the mouse test animal is treated with a predetermined dose of a SOST antagonist candidate for a complete dosing schedule. […] Once the dosing schedule has been completed, both test and control animals are examined with sacrifice using micro-CT to determine the quantity of bone formation present.

[2] = test system: Wnt pathway; experiment: Wnt pathway modulation to promote bone growth (FIG. 1); settings: doses of 2.5 ng (low), 60 ng (medium), 125 ng (high)
Description: For example, the mouse test animal is treated with a predetermined dose of a SOST antagonist candidate for a complete dosing schedule. A control mouse is treated with a control solution, preferably a non-irritating buffer solution or other carrier. Once the dosing schedule has been completed, both test and control animals are examined with sacrifice using micro-CT to determine the quantity of bone formation present.

[3] = test system: C57BL/6 mice; experiment: Femur bone density/volume by pQCT, 30-day i.p. study (FIG. 2); assay type: in vivo, mouse; settings: male C57BL/6 mice, daily i.p. 30 days, 40 mg/kg
Description: (§1) Four month old male C57BL/6 mice were treated daily with saline vehicle or the sclerostin inhibitor of harmine hydrochloride at 20 (“L”), 40 (“M”) or 90 (“H”) mg/kg (via i.p) for 30 days. Study endpoints included measurement of femur bone volume by pQCT analysis (FIG. 2), and a biochemical marker of bone formation, osteocalcin, measured by EIA Elisa (FIG. 3). […] Lumbar vertebra L5 bone volume increased 2% over saline baseline, as measured by uCT, and 73%, as measured by DEXA Piximus.

[4] = test system: C57BL/6 mice; experiment: Serum osteocalcin bone formation marker by EIA Elisa, 30-day i.p. study (FIG. 3); assay type: in vivo, mouse; settings: male C57BL/6 mice, 40 mg/kg daily i.p. 30 days
Description: as §1

[5] = test system: C57BL/6 mice; experiment: Lumbar vertebra L5 bone volume by uCT, 30-day i.p. study; assay type: in vivo, mouse; settings: measured by uCT; male C57BL/6 mice, daily i.p. 30 days; dose not stated
Description: as §1

[6] = test system: C57BL/6 mice; experiment: Lumbar vertebra L5 bone volume by DEXA Piximus, 30-day i.p. study; assay type: in vivo, mouse; settings: measured by DEXA Piximus; male C57BL/6 mice, daily i.p. 30 days; dose not stated
Description: as §1

COc1ccc2c(c1)[nH]c1c(C)nccc12 [harmine hydrochloride]
bone growth (quantity of bone formation by micro-CT) [1]: promoting bone growth
modulation of the Wnt pathway to promote bone growth [2]: modulating the Wnt pathway to promote bone growth
increase over baseline for femur bone density [3]: 13%
percent increase in serum osteocalcin bone formation marker over saline controls [4]: 65%
Lumbar vertebra L5 bone volume increase over saline baseline [5]: 2%
Lumbar vertebra L5 bone volume increase over saline baseline [6]: 73%
